Entries after “also recorded” stand apart in the source; their conditions may differ.
How the values were obtained:
Assay type in all cases: physicochemical
[1] = Photostability test (1): irradiation at specific wavelengths; details: Preparations 1 and 2; irradiated for 24 hours with multi-wavelength irradiation spectrometer; HPLC (FIG. 2)
Procedure: The stability of the aqueous pharmaceutical composition comprising AFDX0250 or a salt thereof under light irradiation was studied.
Preparation 1 with the composition shown in the above Table 1 and Preparation 2 with the composition shown in Table 4 were prepared in usual manners. The prepared preparations were used as test preparations.
The prepared test preparations were irradiated at specific wavelengths using multi-wavelength irradiation spectrometer for 24 hours, and the amount of AFDX0250 in each test preparation at each irradiation wavelength after the irradiation was quantified by high performance liquid chromatography to calculate the residual ratio of AFDX0250 (%). The residual ratio of AFDX0250 (%) represents the ratio of AFDX0250 (%) after irradiation when the amount of AFDX0250 in the test formulation is 100%.

[2] = Stability evaluation test after sterilization treatment; details: for Hydrolysate (%): Example 6 test preparation; for Residual ratio (%): Example 6 test preparation (0.25 g AFDX0250 in 50 mL, citrate buffer, sodium chloride)
Procedure: An aqueous pharmaceutical composition comprising AFDX0250 or a salt thereof was sterilized to evaluate the stability of AFDX0250 in a preparation.
Sodium citrate hydrate (2.5 g) was dissolved in purified water and the solution was adjusted exactly to 100 mL to prepare 2.5% sodium citrate hydrate solution. Citric acid hydrate (0.2 g) was dissolved in purified water and the solution was adjusted exactly to 100 mL to prepare 0.2% citric acid hydrate solution. Sodium chloride (5 g) was dissolved in purified water and the solution was adjusted exactly to 50 mL to prepare 10% sodium chloride solution. 0.25 g of AFDX0250 was weighed, the weighed AFDX0250 was mixed with 10 mL each of 2.5% sodium citrate hydrate solution, 0.2% citric acid hydrate solution and 10% sodium chloride solution, and then the solution was adjusted exactly to 50 mL with purified water to prepare a test preparation.
The prepared test preparation was subjected to gamma radiation sterilization, sterilization by filtration using a filter or autoclaved (AC) sterilization to prepare a sterile formulation. The amount of AFDX0250 after each sterilization treatment was quantified by high performance liquid chromatography to calculate the residual ratio of AFDX0250 (%). The residual ratio of AFDX0250 (%) represents the ratio of AFDX0250 (%) after sterilization treatment when the amount of AFDX0250 in the test preparation is 100%. In addition, the amount of AFDX0250-derived hydrolysate (5,11-dihydro-6H-pyrido[2,3-b][1,4]benzodiazepin-6-one) in each test preparation excluding the test preparation subjected to gamma radiation sterilization was quantified by high performance liquid chromatography.

[3] = Absorption wavelength measurement test (UV-visible spectrophotometer); details: 0.0025% AFDX0250 solution in acetonitrile
Procedure: The absorption wavelength of AFDX0250 was measured.
AFDX0250 (10 mg) was dissolved in acetonitrile, and the solution was adjusted exactly to 100 mL to prepare 0.01% AFDX0250 solution. The solution was diluted 4-fold to prepare 0.0025% AFDX0250 solution. The prepared 0.0025% AFDX0250 solution was used as a test preparation.
The absorption spectrum of the prepared test preparation was measured using ultraviolet visible spectrophotometer.

[4] = after AC (autoclaved) sterilization
[5] = after sterilization by filtration using a filter

CCN(CC)C[C@H]1CCCCN1CC(=O)N1c2ccccc2C(=O)Nc2cccnc21 [AFDX0250, (R)-11-[2-[2-[(diethylamino)methyl]-1-piperidinyl]acetyl]-5,11-dihydro-6H-pyrido[2,3-b][1,4]benzodiazepin-6-one]
degradation of AFDX0250 under irradiation at specific wavelengths [1]: degraded at a wavelength of from 216 to 310 nm and 372 nm; also recorded: particularly degraded at a wavelength of 370 nm
Hydrolysate (%) [2, 4]: 0.37%
Residual ratio (%) [2, 4]: 93.8%
Residual ratio (%) ([2]; after gamma radiation sterilization): 55.7%
Hydrolysate (%) [2, 5]: 0.06%
Residual ratio (%) [2, 5]: 100.3%
absorption spectrum of AFDX0250 [3]: no absorption of AFDX0250 was observed at the longer wavelengths than about 330 nm

— patent US20250213588A1, “STERILIZATION METHOD OF PHARMACEUTICAL PREPARATION AND PACKAGING” (SANTEN PHARMACEUTICAL CO., LTD., priority 2022, published 2025)
